Data set [1] is described as follows: Metabolic stability in rat liver microsomes (RLM). The format is in vitro ADME. To be noted: rat, liver microsomes, pH 7.4, 1 μM compound, 1.0 mg/mL microsome, NADPH; read-out: RLM t1/2. The method, then: (§1) Compounds were also tested for metabolic stability in both rat liver microsomes (RLM) and human liver microsomes (HLM) and their half-life calculated (See Table 6). The assay was performed as follows. The total volume for each incubation was 250 μL. A 100 μM DMSO solution of compound (diluted from 10 mM stock solution) was spiked into 50 mM KH2PO4 (pH 7.4) buffer containing liver microsome at a concentration of 1.0 mg/mL. The reaction was initiated by the addition of 50 μL of 1 mM NADPH. The final concentration of each compound was 1 μM (1% DMSO). The positive controls, phenacetin for CYP1A2, diclofenac for CYP2C9, omeprazole for CYP2C19, dextromethorphan for CYP2D6 and midazolam for CYP3A4 were added to a separate tube with the final substrate concentrations of 1 μM (1% DMSO) for evaluating the enzyme activities in the liver microsomes. At 0, 15, 30 and 60 min, an aliquot of 15 μL reaction mixtures were removed and 200 μL of methanol (with internal standard of 25 ng/mL propranolol) was added to quench the reaction. The resulting mixture was centrifuged and supernatant was used for LC-MS/MS analysis.
(§2) The signals for each compound, or the metabolites for the probe substrates and the internal standard were integrated and the peak area ratios to internal standard were generated. Percent parent remaining at a specified timepoint was calculated based on the peak area ratios at time 0 (as 100%) for in vitro metabolic stability studies in liver microsome and hepatocyte. The observed rate constant (kobs) for the metabolism of substrates was calculated by plotting the natural log of percentage substrate remaining versus time of incubation with the slope being kobs. The half-life (T1/2) was calculated according to the following equation: […]

Data set [2] is described as follows: Metabolic stability in human liver microsomes (HLM). It counts as in vitro ADME. To be noted: pH 7.4, 1 μM compound, 1.0 mg/mL microsome, NADPH, read-out: HLM t1/2. The method, then: as §1, §2
For data set [3], the system named is S-HeLa stably expressing a YFP-Parkin fusion protein. Nature of the data set: Cell rating experiments: Parkin-dependent induction of mitophagy (Tomm20 immunofluorescence). It counts as cell-based. Details: key to Cell Ratings [Example 4] (cell activity): +++: >70% effect at 10 μM; ++: 69%-31% effect at 10 μM; +: <30% effect at 10 μM; −: negative at 10 μM. To be noted: Tomm20 negative cells, 6 μM CCCP, compound at 10 μM; for activation at 10 µM: 20 h, read-out: Cell Ratings [Example 4] (cell activity); for Cell Ratings [Example 4] (cell activity): 20 hours. The method, then: Compounds: All compounds were dissolved in DMSO to a concentration of 25 mM and stored at −20° C. Compound 1 is N,N′-(1-phenyl-1H-1,2,4-triazole-3,5-diyl)dibenzamide.
Cell Culture: S-HeLa stably expressing a YFP-Parkin fusion protein (kindly donated by Prof. Richard J. Youle, Porter Neuroscience Research Center, Bethesda, Md., USA) were utilised to assess Parkin-dependent induction of mitophagy. 4000 cells were seeded in each well of a 96 well plate (Parkin Elmer ViewPlate-96 F TC, cat. N. 6005182) and left to grow for 24 hours.
Subsequently cells were incubated with vehicle (DMSO) or 6 μM CCCP for 1 hour prior to adding increasing concentrations of compound (1, 2.5, 5, 10 μM), each condition run in replicate of five. After 20 hours cells were processed for immunofluorescence.
Immunofluorescence: Samples were fixed in 4% PFA for 25 minutes RT and permeabilized with PBS 0.1% Triton-X100 for 3 minutes on ice, blocked with PBS 3% BSA, 0.3% Triton-X100 for 2 hours RT, followed by overnight incubation with primary antibody at 4° C. ([…] rabbit Tomm20 antibody FL-145; Santa Cruz Biotechnology) diluted in PBS 0.1% BSA, 0.3% Triton-X100. The secondary goat anti-rabbit antibody conjugated with DyLight 649 (Jackson ImmunoResearch) was applied for 1 hour at room temperature at a concentration of […] in conjunction with […] Hoechst33342.
Cells were imaged using an Olympus ScanR automated microscope equipped with motorised stage and 20x APO planar objective. 18 images were acquired for each well using the following combination of excitation/emission filters: Hoechst33342 was excited through a 350/50 nm band pass filter and fluorescence intensity was collected through a 460/30 band pass filter. YFP was excited through a 500/20 nm band pass filter and fluorescence intensity was collected through a 540/35 band pass filter. DyLight 649 was excited through a 640/30 nm band pass filter and fluorescence intensity was collected through 700/75 band pass filter. Images were processed and analysed as described in the Image Analysis section.
Image analysis: Images were processed and analysed using Columbus HCS Analysis software (Version 2.5.0., PerkinElmer) as follows:
Tomm20 fluorescence intensity was corrected using the parabola algorithm. Hoechst 33342 fluorescence was used to identify and count cells. Cells were segmented according to Tomm20 fluorescence intensity. Spot detection was optimized to recognize number and total cellular area of Tomm20 stained clusters (mitochondria).
Tomm20 staining intensity, spot numbers and spot area were used to train a linear classifier algorithm that discriminated between Tomm20 positive (high intensity, spot numbers and spot area) and Tomm20 negative cells (low intensity, spot numbers and spot area).
Bar graphs were generated reporting the number of Tomm20 negative cells expressed as percentage of total cells imaged for each well (FIGS. 3 and 6). Results were shown as mean ±SD of a representative experiment performed in triplicate. +++ indicates >70% effect at 10 μM; ++ indicates 69%-31% effect at 10 μM; + indicates <30% effect at 10 μM; − indicates negative at 10 μM; NA=not available.

The text below walks through data of patent US20210163489A1, “PYRAZOLOPYRIMIDINE DERIVATIVES AND THE COMPOSITIONS AND METHODS OF TREATMENT REGARDING THE SAME” (NysnoBio Ireland DAC, priority 2016, published 2021).

Bounds are passed on as bounds.

Regarding `Cc1nc2c(-c3ccccc3)c(C)nn2c(S)c1Cc1ccccc1` [Compound A, 6-benzyl-2,5-dimethyl-3-phenylpyrazolo[1,5-a]pyrimidine-7-thiol], the half-life at 1 μM in data set [1] turned out to be 84.5 min; in data set [2], 63 min. For the molecule `Cc1nc2c(-c3ccccc3)c(C)nn2c(S)c1Cc1ccncc1` [Compound AA, 2,5-dimethyl-3-phenyl-6-(4-pyridylmethyl)pyrazolo[1,5-a]pyrimidine-7-thiol], the half-life at 1 μM in data set [1] turned out to be 112 min; in data set [2], 65.4 min. Moreover, the activation at 10 µM in data set [3] was above 70%. In the case of `Cc1nc2c(-c3ccccc3)c(C)nn2c(O)c1Cc1ccccc1` [T], the activation at 10 µM in data set [3] was below 30%. Consider `CC(C)(C)c1cc(O)n2ncc(-c3ccccc3)c2n1` [J], for which the activation at 10 µM in data set [3] is 31 to 69%. As for `Cc1nc2c(-c3ccncc3)c(C)nn2c(S)c1Cc1ccccc1` [MM], the “Cell Ratings [Example 4] (cell activity)” value in data set [3] is listed as “−”. Consider `Cc1nc2c(C(F)(F)F)c(C)nn2c(S)c1Cc1ccccc1` [LL], for which the activation at 10 µM in data set [3] fell in the range of 31 to 69%.

Turning to `Cc1nn2c(S)c(Cc3ccccc3)cnc2c1-c1ccccc1` [Compound DD, 6-benzyl-2-methyl-3-phenyl-pyrazolo[1,5-a]pyrimidin-7-thiol], in data set [3], the activation at 10 µM was 31 to 69%. In the case of `Cc1nn2c(S)c(CCc3ccccc3)cnc2c1-c1ccccc1` [Compound E3], the half-life at 1 μM in data set [1] worked out at 3 min. Take `Cc1nc2c(-c3ccccn3)c(C)nn2c(O)c1Cc1ccccc1` [FF]: the activation at 10 µM in data set [3] is below 30%.

With `COc1ccc(-c2cnn3c(S)cc(C)nc23)cc1` [SS], the half-life at 1 μM in data set [1] was 12.9 min; in data set [2], 44.4 min.

For the molecule `Cc1cc2nc(C)c(Cc3ccc(Cl)cc3)c(S)n2n1` [Compound R, 6-[(4-chlorophenyl)methyl]-2,5-dimethyl-pyrazolo[1,5-a]pyrimidine-7-thiol], the activation at 10 µM in data set [3] is below 30%. `Cc1nc2c(-c3ccccc3)c(C)nn2c(S)c1Cc1ccccn1` [Compound BB, 2,5-dimethyl-3-phenyl-6-(2-pyridylmethyl)pyrazolo[1,5-a]pyrimidine-7-thiol]: the “Cell Ratings [Example 4] (cell activity)” value in data set [3] was “−”. `Cc1cc2nc(C)c(Cc3ccc(Cl)cc3)c(O)n2n1` [Compound P, 6-[(4-chlorophenyl)methyl]-2,5-dimethyl-pyrazolo[1,5-a]pyrimidin-7-ol]: in data set [3], the activation at 10 µM was below 30%.

On to `Cc1nc2c(-c3cccnc3)c(C)nn2c(S)c1Cc1ccccc1` [Compound D3], for which the half-life at 1 μM in data set [1] came to 63 min. For the molecule `CCc1nn2c(S)cc(C)nc2c1-c1ccc(F)cc1` [Compound I], the activation at 10 µM in data set [3] is 31 to 69%.

As for `Cc1nn2c(S)c(CC(C)C)cnc2c1-c1ccccc1` [Compound G3], the half-life at 1 μM in data set [1] is 22 min. `Cc1cc2nc(C)c(Cc3ccccc3)c(S)n2n1` [S]: the activation at 10 µM in data set [3] is below 30%. As to `Cc1ccc(-c2cnn3c(S)c4c(nc23)CN(C)CC4)cc1` [Compound S3], the half-life at 1 μM in data set [1] is above 500 min.

For the molecule `Cc1cc(S)n2ncc(-c3cccc(N(C)C)c3)c2n1` [UU], the values for the half-life at 1 μM in data set [1] and in data set [2] were 4.2 min and 33 min, respectively. Consider `Cc1nc2c(-c3ccccc3)cnn2c(O)c1Cc1ccccc1` [Compound U, 6-benzyl-5-methyl-3-phenyl-pyrazolo[1,5-a]pyrimidin-7-ol], for which the half-life at 1 μM in data set [1] was 29 min. For the same molecule, in data set [3], the activation at 10 µM lay in the range of 31 to 69%.

On to `Cc1ccc(-c2cnn3c(S)cc(C)nc23)cc1` [TT], for which the half-life at 1 μM in data set [1] is 8.1 min; in data set [2] it was 11.8 min.

Consider `Cc1cc(S)n2ncc(-c3ccc(F)cc3)c2n1` [Compound L, 3-(4-fluorophenyl)-5-methylpyrazolo[1,5-a]pyrimidine-7-thiol], for which the half-life at 1 μM in data set [1] was 68 min; in data set [2], 161 min. Also, the activation at 10 µM in data set [3] is above 70%.

In the case of `Cc1nc2c(-c3ccccc3)cnn2c(S)c1Cc1ccccc1` [Compound CC, 6-benzyl-5-methyl-3-phenyl-pyrazolo[1,5-a]pyrimidin-7-thiol], the half-life at 1 μM is 55.9 min in data set [1] and 22.9 min in data set [2]. The activation at 10 µM in data set [3] was above 70%. In the case of `Cc1nn2c(O)cc(C(C)(C)C)nc2c1-c1ccc(Cl)cc1` [F], the activation at 10 µM in data set [3] was 31 to 69%. `COc1ccccc1-c1c(C)nn2c(S)cc(C)nc12` [Compound D]: the activation at 10 µM in data set [3] is below 30%.

Regarding `Cc1cc(C)c2c(n1)nn1c(S)cc(C)nc21` [Compound E], the half-life at 1 μM turned out to be 55.9 min in data set [1] and 173 min in data set [2]. Moreover, the activation at 10 µM in data set [3] was above 70%. Turning to `Cc1cc(S)c2ncc(-c3ccc(F)cc3)n2n1` [Compound F3], the half-life at 1 μM in data set [1] worked out at 67 min. Still for that read-out and setting: the figure for `Cc1nn2c(S)c(C)c(Cc3ccccc3)nc2c1-c1ccccc1` [ZZ] is 44 min. For the molecule `Cc1cc(S)n2ncc(-c3ccccc3)c2n1` [Compound C], the activation at 10 µM in data set [3] was in the range of 31 to 69%.

Take `Cc1nn2c(S)c3c(nc2c1-c1ccccc1)CCCC3` [Compound K]: in data set [3], the activation at 10 µM was in the range of 31 to 69%. On to `Sc1c(Cc2ccccc2)cnc2c(-c3ccccc3)cnn12` [Compound Z, 6-benzyl-3-phenyl-pyrazolo[1,5-a]pyrimidin-7-thiol], for which, in data set [3], the activation at 10 µM lay in the range of 31 to 69%. `Cc1nn2c(S)c3c(nc2c1-c1ccccc1)CN(C)CC3` [Compound C3]: the half-life at 1 μM in data set [1] is 277 min; in data set [2], 154 min.
